Patent US20260125371A1, “METHOD FOR INHIBITING CLOSTRIDIOIDES DIFFICILE SPORE GERMINATION” (UNIVERSITY OF NOTRE DAME DU LAC, priority 2022, published 2026)
Values after ≈ are worked out from the molar mass of the structure shown. Like-named read-outs stand apart in the source and are kept apart here.

Key:
C. difficile strains = conditions: cited from earlier work
C. difficile ATCC 43255 = assay: Time-kill assay; type: cell-based, Clostridioides difficile; conditions: 8× MIC
E. faecalis = assay: MIC against E. faecalis strains; type: cell-based; conditions: Enterococcus faecalis
S. pyogenes ATCC 49399 = assay: MIC against S. pyogenes; type: cell-based; conditions: Streptococcus pyogenes, ATCC49399
[1] = tested on: Bifidobacterium longum HM-846; conditions: cited from earlier work
Gram-negative bacteria = type: cell-based

## Cc1ncc([N+](=O)[O-])n1CCO [MTZ, metronidazole]
C. difficile strains; 101 C. difficile strains
  IMIC50 (101 strains): 0.5 µg/mL
C. difficile strains; C. difficile 23828, resistant to FDX
  MIC: 0.5 µg/mL (≈ 2.92 µM)
C. difficile strains; C. difficile 24531, resistant to VAN
  MIC: 0.5 µg/mL (≈ 2.92 µM)
C. difficile strains; C. difficile 26675, resistant to MTZ
  MIC: 4 µg/mL (≈ 23.4 µM)
C. difficile strains; C. difficile BAA-1803
  MIC: 0.5 µg/mL (≈ 2.92 µM)
C. difficile strains; C. difficile BAA-1870
  MIC: 0.5 µg/mL (≈ 2.92 µM)
C. difficile strains; C. difficile strains of Table 4
  MIC50: 0.5 µg/mL (≈ 2.92 µM)
C. difficile strains; strain BAA-1803
  MIC: 0.5 µg/mL (≈ 2.92 µM)
C. difficile strains; strain BAA-1870
  MIC: 0.5 µg/mL (≈ 2.92 µM)
C. difficile strains; strain HM-745
  MIC: 0.5 µg/mL (≈ 2.92 µM)
C. difficile strains; strain HM-747
  MIC: 0.5 µg/mL (≈ 2.92 µM)
C. difficile strains; strain NR-13430
  MIC: 0.5 µg/mL (≈ 2.92 µM)
C. difficile strains; strain NR-13431
  MIC: 0.5 µg/mL (≈ 2.92 µM)
C. difficile strains; strain NR-13433
  MIC: 0.5 µg/mL (≈ 2.92 µM)
C. difficile strains; strain NR-13434
  MIC: 0.5 µg/mL (≈ 2.92 µM)
C. difficile strains; strain NR-13435
  MIC: 0.5 µg/mL (≈ 2.92 µM)
C. difficile strains; strain NR-13436
  MIC: 0.5 µg/mL (≈ 2.92 µM)
C. difficile strains; strain NR-13437
  MIC: 0.5 µg/mL (≈ 2.92 µM)
C. difficile strains; strain NR-13438
  MIC: 0.5 µg/mL (≈ 2.92 µM)
C. difficile strains; strain NR-13553
  MIC: 0.5 µg/mL (≈ 2.92 µM)
C. difficile strains; strain NR-32883
  MIC: 0.5 µg/mL (≈ 2.92 µM)
C. difficile strains; strain NR-32884
  MIC: 0.5 µg/mL (≈ 2.92 µM)
C. difficile strains; strain NR-32885
  MIC: 0.5 µg/mL (≈ 2.92 µM)
C. difficile strains; strain NR-32886
  MIC: 0.5 µg/mL (≈ 2.92 µM)
C. difficile strains; strain NR-32888
  MIC: 0.5 µg/mL (≈ 2.92 µM)
C. difficile strains; strain NR-32890
  MIC: 0.5 µg/mL (≈ 2.92 µM)
C. difficile strains; strain NR-32892
  MIC: 0.5 µg/mL (≈ 2.92 µM)
C. difficile strains; strain NR-32897
  MIC: 0.5 µg/mL (≈ 2.92 µM)
C. difficile strains; strain NR-32903
  MIC: 0.5 µg/mL (≈ 2.92 µM)
C. difficile strains; strain NR-32904
  MIC: 0.5 µg/mL (≈ 2.92 µM)
C. difficile strains; strain NR-49277
  MIC: 0.5 µg/mL (≈ 2.92 µM)
C. difficile strains; strain NR-49278
  MIC: 0.5 µg/mL (≈ 2.92 µM)
C. difficile strains; strain NR-49282
  MIC: 0.5 µg/mL (≈ 2.92 µM)
C. difficile strains; strain NR-49283
  MIC: 0.5 µg/mL (≈ 2.92 µM)
C. difficile strains; strain NR-49284
  MIC: 0.5 µg/mL (≈ 2.92 µM)
C. difficile strains; strain NR-49285
  MIC: 0.5 µg/mL (≈ 2.92 µM)
C. difficile strains; strain NR-49287
  MIC: 0.5 µg/mL (≈ 2.92 µM)
C. difficile strains; strain NR-49288
  MIC: 0.5 µg/mL (≈ 2.92 µM)
C. difficile strains; strain NR-49289
  MIC: 0.5 µg/mL (≈ 2.92 µM)
C. difficile strains; strain NR-49293
  MIC: 0.5 µg/mL (≈ 2.92 µM)
C. difficile strains; strain NR-49295
  MIC: 0.5 µg/mL (≈ 2.92 µM)
C. difficile strains; strain NR-49296
  MIC: 0.5 µg/mL (≈ 2.92 µM)
C. difficile strains; strain NR-49297
  MIC: 0.5 µg/mL (≈ 2.92 µM)
C. difficile strains; strain NR-49299
  MIC: 0.5 µg/mL (≈ 2.92 µM)
C. difficile strains; strain NR-49300
  MIC: 0.5 µg/mL (≈ 2.92 µM)
C. difficile strains; strain NR-49301
  MIC: 0.5 µg/mL (≈ 2.92 µM)
C. difficile strains; strain NR-49303
  MIC: 0.5 µg/mL (≈ 2.92 µM)
C. difficile strains; strain NR-49304
  MIC: 0.5 µg/mL (≈ 2.92 µM)
C. difficile strains; strain NR-49306
  MIC: 0.5 µg/mL (≈ 2.92 µM)
C. difficile strains; strain NR-49307
  MIC: 0.5 µg/mL (≈ 2.92 µM)
C. difficile strains; strain NR-49308
  MIC: 0.5 µg/mL (≈ 2.92 µM)
C. difficile strains; strain NR-49311
  MIC: 0.5 µg/mL (≈ 2.92 µM)
C. difficile strains; strain NR-49312
  MIC: 0.5 µg/mL (≈ 2.92 µM)
C. difficile strains; strain NR-49313
  MIC: 0.5 µg/mL (≈ 2.92 µM)
C. difficile strains; strain NR-49314
  MIC: 0.5 µg/mL (≈ 2.92 µM)
C. difficile strains; strain NR-49315
  MIC: 0.5 µg/mL (≈ 2.92 µM)
C. difficile strains; strain NR-49316
  MIC: 0.5 µg/mL (≈ 2.92 µM)
C. difficile strains; strain NR-49317
  MIC: 0.5 µg/mL (≈ 2.92 µM)
C. difficile strains; strain NR-49319
  MIC: 0.5 µg/mL (≈ 2.92 µM)
C. difficile strains; strain NR-49320
  MIC: 0.5 µg/mL (≈ 2.92 µM)
C. difficile strains; strain NR-49321
  MIC: 0.5 µg/mL (≈ 2.92 µM)
C. difficile strains; strain NR-49325
  MIC: 0.5 µg/mL (≈ 2.92 µM)
C. difficile strains; strain NR-49326
  MIC: 0.5 µg/mL (≈ 2.92 µM)
C. difficile strains; strain NR-49327
  MIC: 0.5 µg/mL (≈ 2.92 µM)
C. difficile strains; strain RMA23691
  MIC: 0.5 µg/mL (≈ 2.92 µM)
C. difficile strains; strain RMA23828
  MIC: 0.5 µg/mL (≈ 2.92 µM)
C. difficile strains; strain RMA24531
  MIC: 0.5 µg/mL (≈ 2.92 µM)
C. difficile strains; strain RMA26675
  MIC: 4 µg/mL (≈ 23.4 µM)
C. difficile strains; strain RMA27081
  MIC: 0.5 µg/mL (≈ 2.92 µM)
C. difficile strains; strain RMA27173
  MIC: 4 µg/mL (≈ 23.4 µM)
C. difficile ATCC 43255
  reduction in bacterial growth (time-kill): 4 log 10
E. faecalis
  MIC: > 256 µg/mL
E. faecalis; ATCC29212
  MIC: > 256 µg/mL
S. pyogenes ATCC 49399
  MIC: > 128 µg/mL
[1]
  MIC: 0.05 µg/mL (≈ 0.292 µM)
Gram-negative bacteria
  activity against Gram-negative organisms: no activity
